Literature values as cited in patent publication US12295943B2 (Closed Loop Medicine Ltd., priority 2023, dated 2025).
Read-outs that look alike come from different tables or passages of the source.

Tests used:
CYP3A4 = CYP3A4 (Homo sapiens, UniProt P08684); conditions: CYP3A4, linked with P-glycoprotein transporter
[1] = system: metabolic enzymes or transport mechanisms; conditions: in vitro
[2] = not given; remark: listed apart in the source
[3] = not given; remark: listed apart in the source
[4] = in vivo
[5] = system: patients with nonvalvular AF
[6] = for trough plasma level range: steady state
[7] = not given; remark: listed apart in the source
stroke = conditions: AF patients
[8] = high body weight (≥120 kg) vs reference group
[9] = low body weight (≤50 kg) vs reference group (65-85 kg)

Sequence of CYP3A4 (P08684 whole entry): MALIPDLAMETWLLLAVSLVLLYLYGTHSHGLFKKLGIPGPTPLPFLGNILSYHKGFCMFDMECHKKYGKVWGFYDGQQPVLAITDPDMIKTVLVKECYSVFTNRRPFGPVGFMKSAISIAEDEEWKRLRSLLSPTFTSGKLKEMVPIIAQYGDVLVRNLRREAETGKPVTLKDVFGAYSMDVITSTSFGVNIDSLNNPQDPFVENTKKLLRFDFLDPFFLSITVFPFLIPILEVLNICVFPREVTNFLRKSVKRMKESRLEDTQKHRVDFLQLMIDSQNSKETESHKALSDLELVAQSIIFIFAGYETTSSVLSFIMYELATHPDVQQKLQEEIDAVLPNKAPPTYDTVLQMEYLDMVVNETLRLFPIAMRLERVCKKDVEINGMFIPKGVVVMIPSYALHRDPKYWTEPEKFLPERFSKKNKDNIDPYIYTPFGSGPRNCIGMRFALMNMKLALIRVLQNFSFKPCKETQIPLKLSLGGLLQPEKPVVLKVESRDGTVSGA

COc1ccc(-n2nc(C(N)=O)c3c2C(=O)N(c2ccc(N4CCCCC4=O)cc2)CC3)cc1 [Apixaban]
AGEP (age coefficient on non-renal clearance, AGEREF 60 years): 0.267 | VC/F (apparent central volume of distribution): 32.1 L | Q/F (apparent inter-compartmental clearance): 1.62 L/h | VP/F (apparent peripheral volume of distribution): 19.8 L | CLNR/F (Ref) (non-renal component of apparent clearance): 2.52 L/h | θ1, θ2 (power coefficients for CrCL versus CL/F): 1.0 | ┌ (shape parameter of dose versus relative bioavailability): 0.853 | WTP (weight coefficient on Vc/F, WTref 85.0 kg): 0.523 | substrate status (CYP3A4): substrate primarily for CYP3A4 | inhibition or induction of metabolic enzymes or transport mechanisms [1]: does not inhibit or induce | lower apixaban AUC0-∞ [2, 8]: ~23% | lower apixaban Cmax [2, 8]: approximately 31% | higher AUC0-∞ [2, 9]: ~20% | higher maximum apixaban plasma concentration (Cmax) [2, 9]: approximately 27% | observed drug plasma levels lower in the evening than in the morning ([3]; evening versus morning): ~50% | coefficient of variance for AUC of the plasma level time profile ([3]; healthy human volunteers): ~30% | coefficient of variance for Cmax ([3]; healthy human volunteers): ~30% | direct intestinal excretion into the faeces, unchanged drug ([3]; human, in vivo): 34% | dose excreted by renal route ([3]; human, in vivo): 20-25% | elimination via metabolism ([3]; human, in vivo): ~20% | renal clearance ([3]; human, in vivo): 15 mL/min | renal clearance as share of GFR ([3]; human, in vivo): ~12 % of GFR | total body clearance ([3]; human, in vivo): 50 mL/min | total body clearance as share of liver blood flow ([3]; human, in vivo): ~3 % liver blood flow | absolute oral bioavailability ([3]; human, in vivo, po): ~50% | half-life after iv or oral solution ([3]; iv or oral solution): ~5 h | time of maximum concentration after oral administration ([3]; oral, without food): 3 to 4 h | time of maximum concentration, range ([3]; oral, without food): 1 to 6 h | increase in levels at steady state compared to the first dose ([3]; repeated administration): ~65% | time to steady state after repeated administration ([3]; repeated administration): ≤ 3 days | delay of maximum concentration by food ([3]; with food): ~1 h | time of maximum concentration with food, range ([3]; with food): 1 to 9 h | principle side effect [4]: increased bleeding tendency, with undesired haemorrhage, sometimes fatal | efficacy compared with warfarin [5]: superior to warfarin | risk of intracranial bleeds compared with warfarin [5]: small reduction | trough plasma level range ([6]; 2.5 mg dose): 20 to 180 ng/mL | trough plasma level range ([6]; 5 mg dose): 10 to 310 ng/mL | variability in drug plasma levels across the population for a given dose ([6]; in vivo): 6-10 FOLD | increase in mean apixaban AUC 0-∞ ([7]; with Clarithromycin): 1.6 fold | increase in mean apixaban Cmax ([7]; with Clarithromycin): 1.3 fold | increase in AUC ([7]; with Clarithromycin (Table 2)): ~50% increase in Cmax and AUC | increase in Cmax ([7]; with Clarithromycin (Table 2)): ~50% increase in Cmax and AUC | increase in AUC ([7]; with Diltiazem): ~40% increase in AUC | increase in AUC ([7]; with Ketaconazole or other CYP 3A4/PgP inhibitors): ~100% increase in AUC | increase in exposure (drug levels) ([7]; with Ketoconazole (CYP 3A4 inhibitor)): ~2 fold | decrease in AUC ([7]; with Riampin or other CYP 3A4 inducers): ~50% decrease in AUC | decrease in exposure ([7]; with rifampicin): ~50%

[H]/N=C(/N)c1ccc(NCc2nc3cc(C(=O)N(CCC(=O)O)c4ccccn4)ccc3n2C)cc1 [dabigatran]
share cleared through the kidneys ([3]; human, in vivo): ~80%

CC(=O)CC(c1ccccc1)c1c(O)c2ccccc2oc1=O (stereo not shown) [warfarin]
reduction of stroke (stroke): about 60%
